Here are results for one molecule from patent publication US10144709B2, “Piperidine compounds, pharmaceutical composition comprising the same and its use” (SK BIOPHARMACEUTICALS CO., LTD., priority 2008, dated 2018).

Where a name gives a salt, the structure may show the parent alone.

The assay concerns ICR CD strain male mice. Nature of the assay: Gastric emptying enhancing activity (phenol red meal). The conditions noted are these: Mus musculus, ip, 0.25 h, 3.0 mg/kg i.p., gastric emptying at 15 min after test meal, increase vs vehicle. It counts as in vivo. As for the experimental part:
ICR CD strain male mice (body weight, 25˜30 g; 8 mice per one group) were fasted for 24 h but allowed free access to water until 3 hours before the test.
Compounds to be tested for promoting GI motility were injected intraperitoneally or given orally at 30 min or 60 min prior to phenol red meal administration. Fifteen (15) min after administration of a test meal (0.5% Phenol red in 1.5% methylcellulose solution), mice were sacrificed and the stomach (pylorus˜cardia) was removed and collected to vial. The stomach was homogenized with its contents in 0.1N NaOH and the mixture was centrifuged (700*g) for 20 min. 2.5 mL of the supernatant was added to 0.25 mL of trichloroacetic acid solution (20% w/v) to precipitate proteins. After centrifuging (2600*g) for 20 min, 0.5 mL of the supernatant was added to 0.25 mL of 1N NaOH. The mixture was homogenized and its absorbance (Abs) was read at 560 nm.
In each experiment, one group was sacrificed just after the administration of the test meal and was considered as a standard (0% emptying). The gastric emptying (GE) at the 15 min period was calculated according to the following formula. GE (%)=(1−Abstest/Absstandard)×100 Increase (%)=(GE %test−GE %vehicle)/GE %vehicle*100

As for `COc1ccc(OC)c(C(O)CN2CCC(CNC(=O)c3cc(Cl)c(N)cc3OC)CC2)c1` (stereo not shown) [Example 15, 4-amino-5-chloro-N-[[1-[2-(2,5-dimethoxyphenyl)-2-hydroxyethyl]piperidin-4-yl]methyl]-2-methoxybenzamide; hydrochloride], the change in vivo at 3 mg/kg was determined as 78.7%.
